The values below come from ChEMBL document CHEMBL1130548, “Synthesis and structure-activity relationships for a series of substituted pyrrolidine NK1/NK2 receptor antagonists” (Bioorg Med Chem Lett, 1997).

Data set [1] in a line: Partition coefficient (logP). The conditions noted are these: octanol/water. It counts as physicochemical.
The nature of data set [2]: The solubility in a […] phosphate buffer solution at pH 7.4. The data set is classed as ADME.
Data set [3] is described as follows: The pKa1 value for the compound was determined by titrating in an aqueous solution (ISA). Conditions: read-out: pKa1. The data set is classed as physicochemical.
Data set [4] is described as follows: The relative permeability was measured from transport studies using polycarbonate membranes and Dulbecco's modified eagle medium with 10% fetal bovine serum. The data set is classed as ADME.
The target in the next data set is Substance-P receptor (Cavia porcellus, UniProt P30547). Briefly: Binding affinity for NK1 receptor in guinea pig lung was determined by using [125 I]-Bolton Hunter labeled SP.
Chain of Substance-P receptor (P30547 whole entry): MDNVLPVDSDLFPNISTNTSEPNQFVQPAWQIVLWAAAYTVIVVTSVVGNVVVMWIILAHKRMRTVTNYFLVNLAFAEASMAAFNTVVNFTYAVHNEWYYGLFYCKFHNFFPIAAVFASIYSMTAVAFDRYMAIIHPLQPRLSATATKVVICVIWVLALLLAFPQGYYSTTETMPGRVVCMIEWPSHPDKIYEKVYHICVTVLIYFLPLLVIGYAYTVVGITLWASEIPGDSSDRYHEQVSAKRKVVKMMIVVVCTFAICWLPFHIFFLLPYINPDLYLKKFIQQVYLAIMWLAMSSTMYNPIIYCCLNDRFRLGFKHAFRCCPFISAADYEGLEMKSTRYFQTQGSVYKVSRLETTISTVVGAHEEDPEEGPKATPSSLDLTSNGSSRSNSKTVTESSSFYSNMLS
The species entered for the next data set is Rattus norvegicus. Briefly: The relative metabolic stability at 10 uM concentration was determined using rat liver […] fortified with NADPH. It counts as functional.
A short description of data set [5]: The pKa2 value for the compound was determined by titrating in an aqueous solution (ISA). It counts as physicochemical. Conditions: read-out: pKa2.
The nature of data set [6]: Partition coefficient (logD). The data set is classed as physicochemical. Conditions: octanol/water.
For the next data set, the system named is Cavia porcellus. The data set is described as follows: The perorally administered compound was evaluated for percentage inhibition of capsaicin induced respiratory effects at 10 mg / kg concentration in guinea pig. Conditions: po.
The nature of data set [7]: The pKa3 value for the compound was determined by titrating in an aqueous solution (ISA). It counts as physicochemical. The conditions noted are these: read-out: pKa3.

As to `COc1cc(C(=O)N2CC[C@](CCN3CCC(C(N)=O)(c4cccnc4)CC3)(c3ccc(Cl)c(Cl)c3)C2)cc(OC)c1OC.Cl`, in data set [1], the logP (usually the decadic logarithm of the partition coefficient of the neutral form, usually between octanol and water) is on record as 1.9. Also, the solubility (usually the concentration that dissolves in the medium under given conditions) in data set [2] was found to be 548 µg/mL. Also, the pKa in data set [3] is 7.6; in data set [5], 3.97. The Relative permiability in data set [4] is reported as 0.1. Besides, the IC50 – broadly, the concentration needed to halve the response being measured – on Substance-P receptor is 4.01 nM. The Relative metabolic stability in the data set listed under Rattus norvegicus came to 0.72. In data set [6], the logD – broadly, the decadic logarithm of the distribution of all forms, ionised or not, between an organic phase and buffer at a given pH – was found to be 2.59. Further, 10 mg/kg produced 38% inhibition in vivo in the data set on Cavia porcellus.
Compound `COc1cc(C(=O)N2CCC(CCN3CCC(C(N)=O)(c4ccc(F)cc4)CC3)(c3ccc(Cl)c(Cl)c3)C2)cc(OC)c1OC` (configuration not stated) had an IC50 on Substance-P receptor of 13.5 nM.
`COc1cc(C(=O)N2CC[C@](CCN3CCC(C(=O)N4CCN(C)CC4)(c4cccnc4)CC3)(c3ccc(Cl)c(Cl)c3)C2)cc(OC)c1OC.Cl`: the logP in [1] (read-out: logP) is 3.2. In [2], this compound came in with a solubility of 1200 µg/mL. Further, the values for the pKa in data set [3], in data set [7] and in [5] were 11.4, 6.71 and 7.76, respectively. In [4], the Relative permiability is given as 1.2. The same compound yielded an IC50 at Substance-P receptor of 2.46 nM. Besides, the logD in [6] (read-out: logD) amounted to 2.41. Moreover, testing at 10 mg/kg in the data set with Cavia porcellus gave an inhibition in vivo of 13%.
As to `COc1cc(C(=O)N2CC[C@](CCN3CCC(C(=O)N4CCN(C)CC4)(c4ccccc4)CC3)(c3ccc(Cl)c(Cl)c3)C2)cc(OC)c1OC.Cl`, the logP in data set [1] (read-out: logP) stood at 4.7. The same compound displayed a solubility in data set [2] of 426 µg/mL. The pKa in [3] was found to be 7.92; in data set [5], 6.86. In [4], this compound came in with a Relative permiability of 2.1. Further, the IC50 on Substance-P receptor was 3.94 nM. This compound yielded a Relative metabolic stability in the data set listed under Rattus norvegicus of 0.43. In data set [6] (read-out: logD), the logD was found to be 3.71. For the same compound, the inhibition in vivo (commonly the change of the read-out against control, counted positive when it falls) at 10 mg/kg in the data set on Cavia porcellus turned out to be 31%.
At Substance-P receptor, `COc1cc(C(=O)N2CCC(CCN3CCC(C(N)=O)(c4ccccc4)CC3)(c3cccnc3)C2)cc(OC)c1OC` (configuration not stated) came in with an IC50 of 567 nM.
As to `COc1cc(C(=O)N2CCC(CCN3CCC(C(=O)N4CCOCC4)(c4ccccc4)CC3)(c3ccc(Cl)c(Cl)c3)C2)cc(OC)c1OC` (configuration not stated), on Substance-P receptor, the IC50 was found to be 8.72 nM.
As for `COc1ccc(C2(CCN3CCC(C(N)=O)(c4ccccc4)CC3)CCN(C(=O)c3cc(OC)c(OC)c(OC)c3)C2)cc1OC` (configuration not stated), the IC50 on Substance-P receptor was 36.7 nM.
`COc1cc(C(=O)N2CCC(CCN3CCC(C(N)=O)(c4ccccc4)CC3)(c3cccc(Cl)c3)C2)cc(OC)c1OC` (configuration not stated): on Substance-P receptor, the IC50 was 10.7 nM.
Still for that read-out and setting: to `COc1cc(C(=O)N2CCC(CCN3CCC(C(N)=O)(c4ccccc4)CC3)(c3ccc(Cl)cc3)C2)cc(OC)c1OC` (configuration not stated) belongs 8.62 nM.
For `COc1cc(C(=O)N2CCC(CCN3CCC(C(N)=O)(c4ccncc4)CC3)(c3ccc(Cl)c(Cl)c3)C2)cc(OC)c1OC` (configuration not stated), the IC50 at Substance-P receptor amounted to 4.88 nM.
On Substance-P receptor, `COc1cc(C(=O)N2CCC(CCN3CCC(C(=O)N4CCCCC4)(c4ccccc4)CC3)(c3ccc(Cl)c(Cl)c3)C2)cc(OC)c1OC` (configuration not stated) came in with a concentration for half-maximal inhibition (IC50) of 23.2 nM.
Regarding `COc1cc(C(=O)N2CC[C@](CCN3CCC(C(=O)N4CCOCC4)(c4ccccc4)CC3)(c3ccc(Cl)c(Cl)c3)C2)cc(OC)c1OC.Cl`, the logP in data set [1] (read-out: logP) worked out at 4.3. Further, the solubility in data set [2] was determined as 25 µg/mL. In addition, in data set [3], the pKa came to 7.51. Moreover, in [4], the Relative permiability is recorded as 3.7. Besides, the concentration for half-maximal inhibition (IC50) on Substance-P receptor was 4.34 nM. The same compound registered a Relative metabolic stability in the data set listed under Rattus norvegicus of 0.77. Further, in [6] (read-out: logD), the logD was found to be 3.02. In the data set on Cavia porcellus, the inhibition in vivo at 10 mg/kg came out at 39%.
At Substance-P receptor, `COc1cc(C(=O)N2CCC(CCN3CCC(C(N)=O)(c4ccccc4)CC3)(c3ccc(F)c(F)c3)C2)cc(OC)c1OC` (configuration not stated) returned an IC50 of 9.76 nM.
For the compound `COc1cc(C(=O)N2CCC(CCN3CCC(C(N)=O)(c4ccccc4)CC3)(c3ccc(Cl)c(Cl)c3)C2)cc(OC)c1OC` (configuration not stated), the IC50 at Substance-P receptor was found to be 5.88 nM.
On Substance-P receptor, `COc1cc(C(=O)N2CCC(CCN3CCC(C(N)=O)(c4cccnc4)CC3)(c3ccc(Cl)c(Cl)c3)C2)cc(OC)c1OC` (configuration not stated) showed an IC50 of 8.14 nM.
On to `COc1cc(C(=O)N2CC[C@](CCN3CCC(C(N)=O)(c4ccccc4)CC3)(c3ccc(Cl)c(Cl)c3)C2)cc(OC)c1OC.Cl`, for which the logP in data set [1] came to 3.4. Also, the concentration in solution in data set [2] (solubility) came to 70 µg/mL. In data set [3], the pKa amounted to 7.64. Moreover, in data set [4], the Relative permiability is on record as 1. Also, the IC50 at Substance-P receptor came to 3.11 nM. This compound showed a Relative metabolic stability in the data set listed under Rattus norvegicus of 1. For the same compound, the logD in data set [6] (read-out: logD) was determined as 3.02. Also, in the data set with Cavia porcellus, testing at 10 mg/kg gave an inhibition in vivo of 60%.
In the case of `COc1cc(C(=O)N2CCC(CCN3CCC(C(=O)NCCN4CCOCC4)(c4ccccc4)CC3)(c3ccc(Cl)c(Cl)c3)C2)cc(OC)c1OC` (configuration not stated), on Substance-P receptor, the IC50 is 7.53 nM.
As to `COc1cc(C(=O)N2CCC(CCN3CCC(C(N)=O)(c4ccccc4)CC3)(c3ccc(F)cc3)C2)cc(OC)c1OC` (configuration not stated), the 50% inhibitory concentration (IC50) on Substance-P receptor turned out to be 23.3 nM.
Same read-out and setting: to `COc1cc(C(=O)N2CCC(CCN3CCC(C(=O)N4CCN(C)CC4)(c4ccccc4)CC3)(c3ccc(Cl)c(Cl)c3)C2)cc(OC)c1OC` (configuration not stated) belongs 4.51 nM.
In data set [1], `COc1cc(C(=O)N2CC[C@](CCN3CCC(C(N)=O)(c4ccncc4)CC3)(c3ccc(Cl)c(Cl)c3)C2)cc(OC)c1OC.Cl` gave a logP of 1.9. The same compound had a solubility in data set [2] of 408 µg/mL. The results for the pKa in data set [3] and in [5] were 7.53 and 4.14, respectively. Further, in data set [4], the Relative permiability is recorded as 0.1. At Substance-P receptor, this compound came in with an IC50 of 2.49 nM. In the data set listed under Rattus norvegicus, the Relative metabolic stability is given as 0.78. Further, the logD in data set [6] is listed as 2.64. Also, at 10 mg/kg the inhibition in vivo in the data set with Cavia porcellus was 20%.
At Substance-P receptor, `COc1cccc(C2(C(N)=O)CCN(CCC3(c4ccc(Cl)c(Cl)c4)CCN(C(=O)c4cc(OC)c(OC)c(OC)c4)C3)CC2)c1` (configuration not stated) gave an IC50 of 8.49 nM.
